Assays:
[1] = test system: human carcinoma xenografts; assay: Human carcinoma xenografts in nude mice (all models); assay type: in vivo; details: doses equivalent to hu3S193-AcBut-CM; earlier experiments, data not shown
Procedure: (§1) The antitumor efficacy of calicheamicin conjugated to anti-Lewis Y antibodies was evaluated against human carcinoma xenografts established subcutaneously (SC) in nude mice. The evaluated xenografts included carcinomas that had either high or low expression of the Lewis Y antigen and carcinomas from breast, colon, lung, and prostate. Mice bearing solid tumors with an average mass of 150 to 300 mg were randomized to various treatment groups.
(§2) The efficacy in vivo of CMD-193 was tested on subcutaneous xenografts from gastric (N87), lung (L2987), cervical/epidermoid (A431/Le^y) and colon (LS174T and LOVO) carcinomas. Unless indicated otherwise, all conjugates and controls were injected intraperitoneally according to Q4DX3 schedule. To monitor for tumor targeting due to the carrier function of immunoglobulin, CMA was used as a negative control. Based on the studies described below, a dosage of 15 mg/kg of CMD-193 (equivalent to a conjugated antibody protein dosage in the range of 562 to 803 mg/m^2) was considered to be the minimum efficacious dose (MED).

[2] = test system: HL-60 promyelocytic leukemia cells; details: HL-60 leukemia cells
[3] = test system: LOVO colon carcinoma xenografts; assay: LOVO colon carcinoma xenografts; assay type: in vivo, nude mice; details: for tumor inhibition of LOVO xenografts: hu3S193-AcBut-CM experiments (FIGS. 5, 6)
Procedure: (§3) The efficacy in vivo of hu3S193-AcBut-CM was tested on subcutaneous xenografts from gastric (N87, FIG. 3), prostate (LNCaP, FIG. 4) and colon (LOVO, FIGS. 5 and 6) carcinomas. Subcutaneous tumors of N87, LOVO and LNCaP were grown in athymic nude mice (Charles River, Wilmington, Mass.). Female mice of 1.5 to 3 months old were injected with respectively 5×10^6 N87 or 10^7 LOVO cells per mouse. LNCaP cells were injected in male nude mice that were 3 months old. To grow tumors, N87 and LNCaP cells had to be mixed (1:1, vol/vol) with […]® (Collaborative Biomedical Products, Belford, Mass.) prior to injection. Two perpendicular diameters of the tumor were measured at least once a week by means of calipers. The tumor volume was calculated according to the formula of Attia & Weiss: A^2×B×0.4.
Unless indicated otherwise, 3 doses of each conjugate and control were given intraperitoneally with an interval of 4 days (Q4Dx3). In vivo, hu3S193-AcBut-CM inhibited tumor growth in these three separate models. Hu3S193-AcBut-CM cured mice from gastric carcinoma xenografts (N87) having high expression of Lewis Y antigen (FIG. 3). […] In the LOVO model, the efficacy of hu3S193-AcBut-CM was improved by increasing the amount of the conjugate (FIG. 5).
Mice bearing LOVO xenografts of 100 mm^3 were treated with control conjugates (RITUXAN-AcBut-CM, FIG. 5A), PBS (FIGS. 5A and 5B), hu3S193 (FIG. 5B) or hu3S193-AcBut-CM (FIG. 5B). Except for the group treated with Hu3S193-AcBut-CM at 4 μg/dose, mice in each group received three doses i.p. The amount of each dose in calicheamicin equivalents is specified in the legend. Conjugates and controls were injected at day 1, 5 and 9. The groups were designated as follows: hu3S193-AcBut-CM, received an additional regimen of three doses at day 43, 47 and 51. The number of mice per group (n) is reported in C. Differences in tumor size at day 30 were probed for statistical significance by a 2-tailed Students t-test.
Mice bearing LOVO xenografts of 100 mm^3 were treated with control conjugates: RITUXAN-AcBut-CM and CMA (FIG. 6A), PBS or hu3S193-AcBut-CM (FIG. 6B). Mice in each group received three or four doses i.p. The amount of each dose in calicheamicin equivalents is specified in the legend. Conjugates and controls were injected at day 1, 5 and 9. The group designated: hu3S193-AcBut-CM*, received an additional dose at day 13. The number of mice per group equals n and p-values of a 2-tailed Students t-test were determined.
Mice bearing LOVO xenografts were tested to investigate the potential benefits of regimens different from 4 μg cal.eq./dose/mouse at Q4DX3. Mice bearing LOVO xenografts of approximately 100 mm^3 were treated with PBS, G193 or various regimens of a control conjugate CMA or CMD. The amount of each dose in calicheamicin equivalents is specified in the legends. The LOVO-model was chosen for this type of experiment because of the marginal efficacy seen with 4 μg cal.eq. at Q4DX3.

[4] = test system: L2987 lung carcinoma xenografts; assay: L2987 lung carcinoma xenografts; assay type: in vivo, nude mice; details: 0.375 to 3 μg/dose/mouse, Q4DX3 i.p.
Procedure: as §2
Mice bearing L2987 xenografts of 100 mm^3 were treated with a control conjugate (CMA), PBS or CMD. Mice in each group received three doses i.p. The amount of each dose in calicheamicin equivalents is specified in the legends. Conjugates and controls were injected at day 1, 5 and 9. […] The error bars represent the standard deviation of the average tumor volume at each time point. The number of mice (expressed as a percentage) with a tumor size smaller than the initial tumor average of each group was plotted as a function of the observation period in FIG. 12. Treatment with CMA (FIG. 12A) or CMD (FIG. 12B) is compared to treatment with vehicle control (PBS).
For the experiment shown in FIG. 13, 10 mice received L2987 xenografts. […]

[5] = test system: N87 gastric carcinoma xenografts; assay: N87 gastric carcinoma xenografts; assay type: in vivo, nude mice; details: 150 mm^3 xenografts
Procedure: as §1, §3
Unless indicated otherwise, 3 doses of each conjugate and control were given intraperitoneally with an interval of 4 days (Q4Dx3). […]

[6] = test system: LS174T colon carcinoma xenografts; assay: LS174T colon carcinoma xenografts; assay type: in vivo, nude mice
Procedure: as §2
Mice bearing LS174T xenografts of 150 mm^3 were treated with a control conjugate (CMA), PBS or CMD. Mice in each group received three doses i.p. The amount of each dose in calicheamicin equivalents is specified in the legends. Conjugates and controls were injected at day 1, 5 and 9. LS174T tumors proliferated so fast that in the control group all the mice had to be killed within a 51-day period because of the large tumor burden (>2.5 cm^3). In the group treated with 4 ug cal.eq. CMD (Q4DX3), 3 out of five mice were killed within 44 days because of a large tumor burden (1/3) or because of necrosis of the tumor (2/3). Of the other two mice one remained tumor-free for 125 days while the other one had developed a small tumor. […] CMD (Q4DX3) or 4 ug cal.eq CMA (Q4DX3). […]

[7] = test system: MX1 breast carcinoma xenografts; assay: MX1 breast carcinoma xenografts; assay type: in vivo, nude mice; details: MX1, at least 35 days
Procedure: The effect of CMD-193 on the growth of established xenografts of carcinomas that had low expression of the Lewis Y antigen was also examined in MX1 breast carcinoma. CMA-676 was used as a nonbinding control conjugate. Nude mice explanted with MX1 breast carcinoma were treated with various dosages of CMD-193 (40 to 240 mg/kg) or CMA-676 (a negative control). Tumor growth was recorded for at least 35 days. In contrast, CMA-676 was effective only at the highest dosages (160 mg/kg) tested.

Compound | major biotransformation pathways (cytosol) | metabolites after incubation (human liver microsomes and cytosol) | biotransformation pathways (microsomes) | tumor inhibition by free CM [1] | metabolites produced [2] | period of statistically significant difference in tumor size from PBS ([3]; 2 μg cal.eq. per mouse Q4Dx3) [days] | period of statistically significant difference in tumor size from PBS ([3]; 4 μg cal.eq. per mouse Q4Dx3) [days] | tumor inhibition of LOVO xenografts [3] | efficacy on LOVO xenografts ([3]; CMD experiment (FIG. 18)) | growth of L2987 xenografts [4] | growth inhibition versus hu3S193-AcBut-CM or CMD at equivalent doses [5] | cures ([6]; 2 ug cal.eq. Q4DX3) | cures ([6]; 4 ug cal.eq. Q4DX3) | lowest dosage with significant growth inhibition [7] [mg/kg]
CCN(C(C)=O)[C@H]1CO[C@@H](O[C@H]2[C@H](O[C@H]3C#C/C=C\C#C[C@]4(O)CC(=O)C(NC(=O)OC)=C3/C4=C\CSSC(C)(C)CC(=O)NN)O[C@H](C)[C@@H](NO[C@H]3C[C@H](O)[C@H](SC(=O)c4c(C)c(I)c(O[C@@H]5O[C@@H](C)[C@H](O)[C@@H](OC)[C@H]5O)c(OC)c4OC)[C@@H](C)O3)[C@@H]2O)C[C@@H]1OC [CM, N-acetyl gamma calicheamicin dimethyl hydrazide] | formation of NAc-epsilon calicheamicin and it's derivatives | Many metabolites were found | hydroxylation and demethylation | never inhibited | Several metabolites, including NAc-epsilon calicheamicin and its isomer |  |  |  |  |  |  |  |  | 
RITUXAN-AcBut-CM: calicheamicin-conjugate of RITUXAN (anti-CD20), control conjugate |  |  |  |  |  | 16 | 16 | negligible tumor inhibition |  |  |  |  |  | 
CMA-676: calicheamicin conjugate of an anti-CD33 antibody, used as control conjugate |  |  |  |  |  |  |  | negligible tumor inhibition | lack of efficacy | significant growth inhibitory effect | inhibited growth significantly less | one out of the five | No cures | 160
